Source: patent US20240409536A1, “COMPOUNDS AND METHODS FOR MODULATING SPLICING” (REMIX THERAPEUTICS INC., priority 2021, published 2024)
Where two headings read alike, the source gives them in different places.

What was measured:
MYB mRNA = experiment: Gene panel canonical junction qPCR assay, MYB CJ mRNA decrease; type: cell-based, human; details: decrease in CJ mRNA levels, read-out: MYB IC50
Method: (§1) Compounds described herein were used to modulate RNA transcript abundance in cells. The expression of a target mRNA was measured by detecting the formation of an exon-exon junction in the canonical transcript (CJ). A compound mediated exon-inclusion event was detected by observing an increase in formation of a new junction with an alternative exon (AJ). Real-time qPCR assays were used to detect these splicing switches and interrogate the potency of various compounds towards different target genes. A high-throughput real time quantitative PCR (RT-qPCR) assay was developed to measure these two isoforms of the mRNA (CJ and AJ) for exemplary genes, such as HTT, SMN2, and MYB, together with a control housekeeping gene, GAPDH or GUSB or PPIA, used for normalization. Briefly, the A673 or K562 cell line was treated with various compounds described herein (e.g., compounds of Formula (I), (I), or (III)). After treatment, the levels of the HTT, MYB, or SMN2 mRNA targets were determined from each sample of cell lysate by cDNA synthesis followed by qPCR.
(§2) The data analysis was performed by first determining the ΔCt vs the housekeeper gene. This ΔCt was then normalized against the DMSO control (ΔΔCt) and converted to RQ (relative quantification) using the 2^(−ΔΔCt) equation. The RQ were then converted to a percentage response by arbitrarily setting an assay window of 3.5 and 4.0 ΔCt for HTT-CJ and MYB-CJ respectively and an assay window of 9 and 3 ΔCt for HTT-AJ and MYB-AJ in 96 well format (50,000 K562 cells/well and 15,000 A673 cells per well) and an assay window of 3 and 4 ΔCt for HTT-CJ and MYB-CJ respectively and an assay window of 5 and 3 ΔCt for HTT-AJ and MYB-AJ respectively in 384 well format (8,000 K562 cells/well example). […] The percentage response was then fitted to the 4 parametric logistic equation to evaluate the concentration dependence of compound treatment. The increase in AJ mRNA is reported as AC50 (compound concentration having […] in AJ increase) while the decrease in CJ mRNA levels is reported as IC50 (compound concentration having 50) response in CJ decrease).
(§3) Additional studies were carried out for a larger panel of genes using the protocol provided above. The junction between flanking upstream and downstream exons was used to design canonical junction qPCR assays. At least one of the forward primer, reverse primer or the CY5-labeled 5′ nuclease probe (with 3′ quencher such as ZEN/Iowa Black FQ) was designed to overlap with the exon junction to capture the CJ mRNA transcript. BLAST was used to confirm the specificity of the probeset and parameters such as melting temperature, GC content, amplicon size, and primer dimer formation are considered during their design. Data for the decrease in CJ mRNA levels for four exemplary genes (HTT, SMN2, MYB, and Target C) analyzed in this panel are reported as IC50 (compound concentration having […] in CJ decrease).
(§4) A summary of the results from the panel is illustrated in Tables 5A and 51B, wherein “A” represents an IC50 of less than 100 nM; “B” represents an IC50 of between 100 nM and 1 μM; and “C” represents an IC50 of between 1 μM and 10 μM; and “D” represents an IC50 of greater than 10 μM.

Target C mRNA = experiment: Gene panel canonical junction qPCR assay, Target C CJ mRNA decrease; type: cell-based; details: Homo sapiens, decrease in CJ mRNA levels, read-out: Target C IC50
Method: as §1, §2, §3, §4

SMN2 mRNA = experiment: Gene panel canonical junction qPCR assay, SMN2 CJ mRNA decrease; type: cell-based, human; details: decrease in CJ mRNA levels, read-out: SMN2 IC50
Method: as §1, §2, §3, §4

HTT mRNA = experiment: Gene panel canonical junction qPCR assay, HTT CJ mRNA decrease; type: cell-based, human; details: Homo sapiens, decrease in CJ mRNA levels, read-out: HTT IC50
Method: as §1, §2, §3, §4

| Compound | IC50 (MYB mRNA; Homo sapiens) [nM] | IC50 (Target C mRNA) [nM] | IC50 (SMN2 mRNA; Homo sapiens) [nM] | IC50 (HTT mRNA) [nM] | IC50 (MYB mRNA) [nM] | IC50 (SMN2 mRNA) [nM] |
| --- | --- | --- | --- | --- | --- | --- |
| Cc1cn2nc(NC(=O)c3sc([C@H]4CCN[C@@H](C)C4)cc3F)cc(C)c2n1 [Compound 577] | 100 to 1000 | 100 to 1000 | 1000 to 10000 | 100 to 1000 |  |  |
| Cc1cn2nc(NC(=O)c3sc([C@H]4CCN[C@H](C)C4)cc3F)cc(C)c2n1 [Compound 578] | < 100 | 1000 to 10000 | 1000 to 10000 | 100 to 1000 |  |  |
| Cc1cn2nc(NC(=O)c3sc([C@@H]4CCN[C@@H](C)C4)cc3F)cc(C)c2n1 [Compound 579] | < 100 | 100 to 1000 | 100 to 1000 | < 100 |  |  |
| Cc1cn2cc(-c3cc(F)c(C(=O)N[C@H]4CCN[C@H](C)C4)s3)nc2c(C)n1 [Compound 583] | 1000 to 10000 | > 10000 | > 10000 | > 10000 |  |  |
| Cc1cn2cc(NC(=O)c3sc([C@@H]4CCN[C@H](C)C4)cc3F)cc(F)c2n1 [Compound 589] | < 100 | 1000 to 10000 | 1000 to 10000 | 100 to 1000 |  |  |
| Cc1cn2cc(NC(=O)c3sc([C@@H]4CCN[C@@H](C)C4)cc3F)cc(F)c2n1 [Compound 591] | < 100 | 100 to 1000 | 1000 to 10000 | 100 to 1000 |  |  |
| Cc1cn2cc(NC(=O)c3sc([C@H]4CCN[C@H](C)C4)cc3F)cc(F)c2n1 [Compound 592] | 100 to 1000 | 1000 to 10000 | 1000 to 10000 | 100 to 1000 |  |  |
| Cc1cn2cc(NC(=O)c3sc(N4CCN(C)C(C)C4)cc3F)cc(F)c2n1 (stereo not drawn) [Compound 602] | 100 to 1000 | > 10000 | > 10000 | > 10000 |  |  |
| Cc1cn2cc(NC(=O)c3sc(N4CCNC(C)(C)C4)cc3F)cc(F)c2n1 [Compound 604] | 1000 to 10000 | > 10000 | > 10000 | > 10000 |  |  |
| Cc1cn2cc(NC(=O)c3sc(N4CC(C)(C)NC(C)(C)C4)cc3F)cc(F)c2n1 [Compound 606] | 100 to 1000 | 1000 to 10000 | > 10000 | 1000 to 10000 |  |  |
| Cc1cn2cc(NC(=O)c3sc(N4CC5(CNC5)C4)cc3F)cc(F)c2n1 [Compound 607] | 1000 to 10000 | 1000 to 10000 | > 10000 | > 10000 |  |  |
| Cc1cn2cc(NC(=O)c3sc(N4CC5(CN(C)C5)C4)cc3F)cc(F)c2n1 [Compound 608] | 1000 to 10000 | > 10000 | > 10000 | > 10000 |  |  |
| Cc1cn2cc(NC(=O)c3sc(N4CCC(N5CCCC5)C4)cc3F)cc(F)c2n1 (stereo not drawn) [Compound 609] | 100 to 1000 | 1000 to 10000 | 1000 to 10000 | 1000 to 10000 |  |  |
| Cc1cn2cc(NC(=O)c3sc(N4CCC(N(C)C)C4)cc3F)cc(F)c2n1 (stereo not drawn) [Compound 611] | 100 to 1000 | 1000 to 10000 | > 10000 | > 10000 |  |  |
| Cc1cn2cc(NC(=O)c3sc(N4CCN5CCCC5C4)cc3F)cc(F)c2n1 (stereo not drawn) [Compound 612] | 1000 to 10000 | 1000 to 10000 | > 10000 | > 10000 |  |  |
| Cc1cn2cc(NC(=O)c3sc(N4CCC(N(C)C)CC4)cc3F)cc(F)c2n1 [Compound 613] | 100 to 1000 | > 10000 | > 10000 | 1000 to 10000 |  |  |
| Cc1cn2cc(NC(=O)c3sc(N4CCC(NC(C)(C)C)CC4)cc3F)cc(F)c2n1 [Compound 614] | 1000 to 10000 | > 10000 | > 10000 | > 10000 |  |  |
| Cc1cn2cc(NC(=O)c3sc(C4CCNCC4)cc3F)cc(F)c2n1 [Compound 617] |  | 1000 to 10000 |  | 1000 to 10000 | 1000 to 10000 | 1000 to 10000 |
| Cc1cn2cc(NC(=O)c3sc(C4CCN(C)CC4)cc3F)cc(F)c2n1 [Compound 618] | 1000 to 10000 | 1000 to 10000 | 1000 to 10000 | > 10000 |  |  |
| CCN1CCC(c2cc(F)c(C(=O)Nc3cc(F)c4nc(C)cn4c3)s2)CC1 [Compound 619] | < 100 | 100 to 1000 | 100 to 1000 | 100 to 1000 |  |  |
| Cc1cn2cc(NC(=O)c3sc(C4CC(C)(C)NC(C)(C)C4)cc3F)cc(F)c2n1 [Compound 621] | 100 to 1000 | 1000 to 10000 | 1000 to 10000 | 100 to 1000 |  |  |
| Cc1cn2cc(NC(=O)c3sc(N(C)C4CC(C)(C)NC(C)(C)C4)cc3F)cc(F)c2n1 [Compound 622] | < 100 | 100 to 1000 | 1000 to 10000 | 100 to 1000 |  |  |
| CC1CC(c2cc(F)c(C(=O)Nc3ccc4cn(C)nc4c3)s2)CCN1 (stereo not drawn) [Compound 624] | 100 to 1000 | 1000 to 10000 | > 10000 | > 10000 |  |  |
| CC1CC(c2cc(F)c(C(=O)Nc3cc(F)c4cn(C)nc4c3)s2)CCN1 (stereo not drawn) [Compound 625] | 1000 to 10000 | 1000 to 10000 | 1000 to 10000 | 1000 to 10000 |  |  |
| Cc1nc2c(F)cc(NC(=O)c3sc(N4CCNC(C)C4)cc3F)cc2o1 (stereo not drawn) [Compound 637] | > 10000 | > 10000 | > 10000 | > 10000 |  |  |
| Cc1cn2cc(NC(=O)c3sc(N4CCNC(C)C4)cc3F)c(C)cc2n1 (stereo not drawn) [Compound 639] | 100 to 1000 | 1000 to 10000 | 100 to 1000 | 1000 to 10000 |  |  |
| Cc1cn2cc(NC(=O)c3sc(N4CCNC(C)C4)cc3F)ncc2n1 (stereo not drawn) [Compound 640] | 100 to 1000 | 1000 to 10000 | 100 to 1000 | > 10000 |  |  |
| Cc1cn2cc(NC(=O)c3sc(N4CCNC(C)C4)cc3F)nc2c(C)n1 (stereo not drawn) [Compound 641] | 1000 to 10000 | > 10000 | > 10000 | > 10000 |  |  |
| Cc1cn2nc(NC(=O)c3sc(N4CCNC(C)C4)cc3F)nc2c(C)n1 (stereo not drawn) [Compound 642] | 100 to 1000 | > 10000 | > 10000 | > 10000 |  |  |
| Cc1cn2nc(NC(=O)c3sc(N4CCNC(C)C4)cc3F)cc2c(C)n1 (stereo not drawn) [Compound 643] | > 10000 | > 10000 | > 10000 | > 10000 |  |  |
